Experiments:
[1] = tested on: CF1 male mice, LPS Salmonella abortus equi induced death; assay: Protection against septic shock (LPS induced endotoxic shock); assay type: in vivo; settings: for Percent Survival at 52 hr: LPS 10 mg/kg, CF1 male mice, N=6
Source text: Few reports in the literature indicate interaction at these receptor sites other than by peptides or antibodies. […] Blocking these receptors is desirable because the entire inflammation cascade of events is triggered by the early release of TNFa and IL-1. […] Radioisotopes were obtained from New England Nuclear [Dupont, Boston, MA] and substrates and co- factors were obtained from Sigma Chemical Co. [St. Louis, MO]. […] Cell lines were obtained from American Type Culture Collection [Rockville, MD]. In Vivo Tests Anti-inflammatory screen in mice: Male CF male mice weighing 28-32g obtained from Jackson Lab. [Bar Harbor, […]] were used to screen agents at 8 or 16 mg/kg intraperitoneal [I.P.] x 2 administered 3 hr and 30 min prior to administering the irritant, according to Winter's protocol. Evaluation of the induced edema was made by injecting 2% carrageenan in 0.9% saline into the plantar region of the foot. The opposite foot injected with 0.9% isotonic saline was used as a base line. […] Salmonella abortus equi [Lot # 69F4003] […] Drugs from 2 to 16 mg/kg, I.P. were administered 2 hr prior and 2 hr post-injection of the LPS and then subsequently for every 24 hr for the length ofthe animals' lives. Deaths were recorded every 12 hr and continued for 96 hr. […] In vitro TNFa andIL-1 Measurements and Cellular Regulation IC-21 mouse macrophages were maintained in RPMI-1640 + 10% FCS + P/S. After the cells had grown to confluency, E. coli LPS at 10 Ixg/ml was added to the medium. Agents were incubated at 12.5 to 100 µM final concentration for 18 hr. The medium (100 btl) was collected for TNFCt determinations. Interleukin-1 [IL-1] release was determined using P388D1 cells which were maintained in RPMI-1640 + 10% FCS + P/S. The L929 bioassay was used to quantitate the TNF and the IL-1 levels. The L929 mouse fibroblasts were grown in DMEM + 10% FCS + P/S to confluency in 96 well plates and incubated with 100 tl ofmedium from […] or P388D cells after 18 hr. The cells were stained with 0.2% crystal violet in 20% MeOH and read at 580 nm using a Molecular Devices scanner (SOFT-max program). High Affinity Binding to Receptors on L929-106 Cells Two laCi of 125I-TNFct (human recombinant, 30 mCi/tg New England Nuclear) or 125I-IL-1 (70-120[.t Ci/lxg,New England Nuclear) was added to confluency L929 cells for 90 min or 5 hr, respectively with 25, 50 and 100 tM of the test compounds 12]. The cells were washed repeatedly with isotonic saline, pH.7.2 and aliquots counted. Prostaglandin cylcooxygenase activity Mouse J774AI macrophages maintained in Dulbecco's modified Eagle's medium + 15% FCS + P/S. Cells (5 x 106) were incubated with agents (5 to 100 ].tM final concentration) and 3H-arachidonic acid (100 Ci/mol) for 60 min at 37C in a CO2 incubator. The reaction was terminated with 2N HCI, the mixture extracted 2 X with ether, and the organic layer evaporated.

[2] = tested on: IL-8 high affinity receptor on chinese hamster ovarian carcinoma K-1 cells; assay: 125I-IL-8 high affinity binding to chinese hamster ovarian carcinoma K-1 cells; settings: for 125I-IL-8 binding, Percent of Control: N=6
[3] = molecular target: T1, IL-2 high affinity receptor on HUT78 T lymphoma cell membrane (Homo sapiens, UniProt P01589+P14784); assay: 125I-IL-2 high affinity binding to HuT78 T lymphoma cells; settings: for 125I-IL-2 binding, Percent of Control: N=6
T1 construct: host or cells: HuT78 T lymphoma cells
T1 sequence (P01589 22-272): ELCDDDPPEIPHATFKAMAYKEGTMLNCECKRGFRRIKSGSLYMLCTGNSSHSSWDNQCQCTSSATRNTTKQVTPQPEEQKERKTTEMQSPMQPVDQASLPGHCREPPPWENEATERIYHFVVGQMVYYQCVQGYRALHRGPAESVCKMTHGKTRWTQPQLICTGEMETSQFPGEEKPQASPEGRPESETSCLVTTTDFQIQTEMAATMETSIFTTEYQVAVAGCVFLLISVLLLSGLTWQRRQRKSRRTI
T1 sequence (P14784 27-551): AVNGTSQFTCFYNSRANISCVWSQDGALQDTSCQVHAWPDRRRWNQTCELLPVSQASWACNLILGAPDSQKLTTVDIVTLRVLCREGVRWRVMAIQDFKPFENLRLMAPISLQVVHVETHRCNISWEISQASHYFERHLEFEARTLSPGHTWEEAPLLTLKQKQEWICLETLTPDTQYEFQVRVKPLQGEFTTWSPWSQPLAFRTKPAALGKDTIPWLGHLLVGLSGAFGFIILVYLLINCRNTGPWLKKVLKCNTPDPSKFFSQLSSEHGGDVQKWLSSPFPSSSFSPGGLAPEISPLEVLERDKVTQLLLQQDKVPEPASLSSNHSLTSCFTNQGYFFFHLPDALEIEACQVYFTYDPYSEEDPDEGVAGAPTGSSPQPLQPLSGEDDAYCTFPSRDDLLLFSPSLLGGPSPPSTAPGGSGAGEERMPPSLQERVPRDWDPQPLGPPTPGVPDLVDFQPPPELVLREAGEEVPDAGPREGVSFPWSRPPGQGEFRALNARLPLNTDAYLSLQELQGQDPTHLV

[4] = molecular target: J774-A1 macrophage elastase; assay: Elastase activity in J774-A1 macrophages; assay type: biochemical, mouse; settings: 120 min
[5] = tested on: RPMI 1788 leukocytes adhesion to L929 fibroblasts; assay: Adhesion of human leukocytes RPMI-1788 to confluent L929 fibroblasts; assay type: cell-based; settings: N=6
[6] = tested on: J774 A1 mouse macrophages adhesion to L929 fibroblasts; assay: Adhesion of J-774 A1 mouse macrophages to confluent L929 fibroblasts; assay type: cell-based; settings: for Adhesion, Percent of Control: N=6

Pentosan sulfate [Pentosan polysulfate, reference compound]
Percent Survival at 52 hr ([1]; 8 mg/Kg I.P.): 67% | Percent Survival at 52 hr ([1]; 16 mg/Kg I.P.): 83% | protection from LPS induced death ([1]; 16 mg/kg): 83% | 125I-IL-8 binding, Percent of Control ([2]; 50 μM, 5 Hours): 79 + 6% of Control | 125I-IL-8 binding, Percent of Control ([2]; 50 μM, 24 Hours): 51 + 6% of Control | reduction of IL-8 high affinity binding ([2]; 50 μM, 5 hr): 21-23% | 125I-IL-8 binding, Percent of Control ([2]; 100 μM, 24 Hours): 47 + 8% of Control | reduction of IL-8 high affinity binding ([2]; 24 hr): greater than 40% | 125I-IL-2 binding, Percent of Control ([3]; 5 μM, 2 Hours): 362 + 9% of Control | 125I-IL-2 binding, Percent of Control ([3]; 5 μM, 5 Hours): 148 + 5% of Control | 125I-IL-2 binding, Percent of Control ([3]; 12.5 μM, 2 Hours): 188 + 5% of Control | 125I-IL-2 binding, Percent of Control ([3]; 12.5 μM, 5 Hours): 89 + 6% of Control | 125I-IL-2 binding, Percent of Control ([3]; 25 μM, 2 Hours): 123 + 7% of Control | 125I-IL-2 binding, Percent of Control ([3]; 25 μM, 5 Hours): 81 + 6% of Control | 125I-IL-2 binding, Percent of Control ([3]; 50 μM, 2 Hours): 104 + 6% of Control | 125I-IL-2 binding, Percent of Control ([3]; 50 μM, 5 Hours): 55 + 4% of Control | reduction of IL-2 high affinity binding ([3]; 50 μM, 5 hr): 45% | IC50 Elastase J774-A1 [4]: Increased | Adhesion, Percent of Control ([5]; 12.5 μM, 2 Hours): 83+5% of Control | Adhesion, Percent of Control ([5]; 12.5 μM, 5 Hours): 82+5% of Control | Adhesion, Percent of Control ([5]; 25 μM, 2 Hours): 116+6% of Control | Adhesion, Percent of Control ([5]; 25 μM, 5 Hours): 82+6% of Control | Adhesion, Percent of Control ([5]; 50 μM, 2 Hours): 147+6% of Control | Adhesion, Percent of Control ([6]; 5 μM, 2 Hours): 75+7% of Control | Adhesion, Percent of Control ([6]; 5 μM, 5 Hours): 103+5% of Control | Adhesion, Percent of Control ([6]; 5 μM, 90 min): 329 + 12% of Control | Adhesion, Percent of Control ([6]; 12.5 μM, 2 Hours): 53 + 6% of Control | Adhesion, Percent of Control ([6]; 12.5 μM, 5 Hours): 108+7% of Control | Adhesion, Percent of Control ([6]; 12.5 μM, 90 min): 363 + 16% of Control | reduction of J774A1 macrophage adhesion ([6]; 12.5 μM, 2 hr): 47% | Adhesion, Percent of Control ([6]; 25 μM, 2 Hours): 66+ 5% of Control | Adhesion, Percent of Control ([6]; 25 μM, 5 Hours): 169+6% of Control | Adhesion, Percent of Control ([6]; 25 μM, 90 min): 260 + 9% of Control | Adhesion, Percent of Control ([6]; 50 μM, 2 Hours): 110+6% of Control | Adhesion, Percent of Control ([6]; 50 μM, 5 Hours): 187 + 7% of Control | Adhesion, Percent of Control ([6]; 50 μM, 90 min): 176 +6% of Control
